From patent publication US20240150340A1, “CDK Inhibitors And Their Use As Pharmaceuticals” (Prelude Therapeutics Incorporated, priority 2022, published 2024)

Columns and labels:
CDK2/Cyclin E2 = molecular target: T1, CDK2/Cyclin E2 (Homo sapiens, UniProt P24941); assay: CDK2/CyclinE2 Enzymatic Activity Assay (TR-FRET); assay type: biochemical; settings: ATP 1 mM final, read-out: CDK2_E1 IC50
T1 construct: Recombinant protein complex CDK2/Cyclin E2, expressed from insect cell, was purchased from ProQinase
Method in brief: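 Recombinant insect-cell CDK2/Cyclin E2 (1 nM) phosphorylated ULight-4E-BP1 (50 nM) with 1 mM ATP in HEPES pH 7.4 buffer, after 20 min compound preincubation; MgCl2 (10 mM) started the 45 min reaction at 37° C. Europium anti-phospho-4E-BP1 TR-FRET read; 9-dose IC50 by 4-parameter fit.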

CDK4/Cyclin D1 = molecular target: T2, CDK4/Cyclin D1 (Homo sapiens, UniProt P11802); assay: CDK4/CyclinD1 Enzymatic Activity Assay (TR-FRET); assay type: biochemical; settings: ATP 2 mM final, read-out: CDK4_D1 IC50
T2 construct: purchased ProQinase; host or cells: insect cell
T2 sequence (P11802 whole entry): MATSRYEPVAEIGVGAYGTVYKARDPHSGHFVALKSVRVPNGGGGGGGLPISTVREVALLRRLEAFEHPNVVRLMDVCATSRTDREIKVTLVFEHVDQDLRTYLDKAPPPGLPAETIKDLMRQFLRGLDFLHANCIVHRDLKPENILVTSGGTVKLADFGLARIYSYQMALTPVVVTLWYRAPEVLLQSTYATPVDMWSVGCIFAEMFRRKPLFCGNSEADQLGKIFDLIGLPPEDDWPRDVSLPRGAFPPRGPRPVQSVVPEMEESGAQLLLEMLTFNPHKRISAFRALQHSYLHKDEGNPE
T2 sequence (P24385 whole entry partner): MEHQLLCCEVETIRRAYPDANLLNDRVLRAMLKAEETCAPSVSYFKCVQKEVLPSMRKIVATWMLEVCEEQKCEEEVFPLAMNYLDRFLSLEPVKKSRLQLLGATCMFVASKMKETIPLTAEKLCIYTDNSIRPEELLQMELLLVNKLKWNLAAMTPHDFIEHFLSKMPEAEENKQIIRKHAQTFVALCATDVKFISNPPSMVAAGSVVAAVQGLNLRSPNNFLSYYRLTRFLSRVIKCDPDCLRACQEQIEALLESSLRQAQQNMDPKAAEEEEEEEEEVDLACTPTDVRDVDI
Description: CDK4/CyclinD1 Enzymatic Activity Assay
The inhibitory activity of compounds was evaluated in vitro using TR-FRET assay with white 384-well low volume microplate (Greiner Bio-One). CDK4/Cyclin D1 catalyzed phosphorylation of peptide in the presence and absence of compounds was measured and used in IC50 determination. Recombinant protein complex CDK4/Cyclin D1, expressed from insect cell, was purchased from ProQinase. Testing compounds were dissolved in DMSO at 1 mM and tested in 9-dose IC50 mode. The reaction mixture was prepared by mixing CDK4/CyclinD1 (1 nM final), ULight-4E-BP1 (100 nM final, Perkinelmer, TRF0128-D), and ATP (2 mM final) in assay buffer (20 mM of HEPES pH 7.4, 1 mM of EGTA, 0.05% BSA, 0.005% Tween 20, and 1 mM TCEP). The compound of interest in DMSO was added to each well in 3-fold serial dilution by the dispenser (TECAN D300E) to make a 9.9 μL of reaction mixture. After 20 minutes preincubation at room temperature, 0.1 μL MgCl2 (10 mM final) was added to initiate the reaction. Following a 45-minute incubation at 37° C., the reaction was stopped by addition of 2 μL of quenching buffer consisting of Lance detection buffer (Perkinelmer CR97-100C), LANCE Ultra Europium-anti-P-4E-BP1 (Perkinelmer, TRF0216-D), EDTA, and incubated at room temperature for additional 60 minutes in dark. The reaction signal was measured by Envision multimode plate reader (PerkinElmer, 2102-0010). IC50 values were determined by fitting the data to the standard 4 parameters with Hill Slope using GraphPad Prism software.

OVCAR3 p-RB = assay: pRB ICW Assay in OVCAR3 Cells; assay type: cell-based; settings: Homo sapiens, OVCAR-3, incubated with compound for 2 hours
Method in brief: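 OVCAR3 cells were treated 2 h at 37° C. with a 9-point half-log compound series, duplicate wells, with 10 μM reference compound as maximum inhibition. Fixed, permeabilized cells were stained with anti-phospho-RB plus DRAQ5 and imaged at 700/800 nm (In-Cell Western).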

Row | Compound | IC50 (CDK2/Cyclin E2) [nM] | IC50 (CDK4/Cyclin D1) [nM] | IC50 (OVCAR3 p-RB) [nM]
1 | Cc1sc(-c2nc(NC3CCN(S(=O)(=O)c4cn(C)cn4)CC3)ncc2C(F)(F)F)cc1C#N [Example 1, 2-Methyl-5-[2-[[1-(1-methylimidazol-4-yl)sulfonylpiperidin-4-yl]amino]-5-(trifluoromethyl)pyrimidin-4-yl]thiophene-3-carbonitrile] | ≤ 100 | ≤ 100 | ≤ 100
2 | Cc1cnc(-c2nc(NC3CCN(S(=O)(=O)c4cnn(C)c4)CC3)ncc2C(F)(F)F)s1 [Example 2, N-(1-((1-methyl-1H-pyrazol-4-yl)sulfonyl)piperidin-4-yl)-4-(5-methylthiazol-2-yl)-5-(trifluoromethyl)pyrimidin-2-amine] | ≤ 100 | ≤ 100 | ≤ 100
3 | Cn1cnc(S(=O)(=O)N2CCC(Nc3ncc(C(F)(F)F)c(-c4ncc(CC(C)(C)O)s4)n3)CC2)c1 [Example 3, 2-Methyl-1-(2-(2-((1-((1-methyl-1H-imidazol-4-yl)sulfonyl)piperidin-4-yl)amino)-5-(trifluoromethyl)pyrimidin-4-yl)thiazol-5-yl)propan-2-ol] | ≤ 100 | ≤ 100 | ≤ 100
4 | Cc1sc(-c2nc(N[C@@H]3CCN(S(=O)(=O)c4cnn(C)c4)C[C@H]3F)ncc2C(F)(F)F)cc1C#N [Example 4, 5-(2-(((3R,4R)-3-fluoro-1-((1-methyl-1H-pyrazol-4-yl)sulfonyl)piperidin-4-yl)amino)-5-(trifluoromethyl)pyrimidin-4-yl)-2-methylthiophene-3-carbonitrile] | ≤ 100 | ≤ 100 | 100 to 500
5 | Cc1sc(-c2nc(N[C@@H]3CCN(S(=O)(=O)c4cn(C)cn4)C[C@H]3F)ncc2C(F)(F)F)cc1C#N [Example 5, 5-(2-(((3R,4R)-3-fluoro-1-((1-methyl-1H-imidazol-4-yl)sulfonyl)piperidin-4-yl)amino)-5-(trifluoromethyl)pyrimidin-4-yl)-2-methylthiophene-3-carbonitrile] | ≤ 100 | ≤ 100 | 100 to 500
6 | CS(=O)(=O)N1CC[C@@H](Nc2ncc(C(F)(F)F)c(-c3cc(C(N)=O)cs3)n2)[C@H](F)C1 [Example 6, 5-(2-(((3R,4R)-3-fluoro-1-(methylsulfonyl)piperidin-4-yl)amino)-5-(trifluoromethyl)pyrimidin-4-yl)thiophene-3-carboxamide] | ≤ 100 | ≤ 100 | ≤ 100
7 | CS(=O)(=O)N1CC[C@H](Nc2ncc(C(F)(F)F)c(-c3cc(C(N)=O)cs3)n2)[C@H](F)C1 [Example 7, 5-(2-(((3R,4S)-3-fluoro-1-(methylsulfonyl)piperidin-4-yl)amino)-5-(trifluoromethyl)pyrimidin-4-yl)thiophene-3-carboxamide] | ≤ 100 | ≤ 100 | ≤ 100
8 | CC(C)(O)Cc1cnc(-c2nc(N[C@H]3CCN(S(C)(=O)=O)C[C@H]3F)ncc2Cl)s1 [Example 152, 1-(2-(5-chloro-2-(((3R,4S)-3-fluoro-1-(methylsulfonyl)piperidin-4-yl)amino)pyrimidin-4-yl)thiazol-5-yl)-2-methylpropan-2-ol] | ≤ 100 |  | 100 to 500
9 | CC(C)(O)Cc1cnc(-c2nc(N[C@H]3CCN(S(C)(=O)=O)C[C@H]3F)ncc2C#N)s1 [Example 153, 2-(((3R,4S)-3-fluoro-1-(methylsulfonyl)piperidin-4-yl)amino)-4-(5-(2-hydroxy-2-methylpropyl)thiazol-2-yl)pyrimidine-5-carbonitrile] | ≤ 100 |  | > 500
10 | CC(C)(O)Cc1cnc(-c2nc(N[C@H]3CCN(S(C)(=O)=O)C[C@H]3F)ncc2C(F)F)s1 [Example 154, 1-(2-(5-(difluoromethyl)-2-(((3R,4S)-3-fluoro-1-(methylsulfonyl)piperidin-4-yl)amino)pyrimidin-4-yl)thiazol-5-yl)-2-methylpropan-2-ol] | ≤ 100 |  | > 500
